According to patent US20040014215A1, “Synchronised arabidopsis cell suspensions and uses thereof” (priority 2000, published 2004):

Experiments:
[1] = system: Arabidopsis cell suspension MM2d; test: Aphidicolin block/release of MM2d: mitotic index and labelling index; format: cell-based, Arabidopsis thaliana
Description: This experiment was carried out as described for Example 1, except that cell line MM2d was used, and the culture conditions throughout the experiment were as described for MM2d in Example 1.
Synchronisation was performed as described in Example 2A, with the exception that before adding aphidicolin, 20 ml of the weekly subcultured cell suspension was transferred into 100 ml fresh MSS-medium in each of 2 separate flasks and cultivated under conditions as described in Example 1 for MM2d. […] Samples were taken at the same time frame for flow cytometry to follow cell cycle transition.
Samples were analysed by flow cytometry to determine the percentage of cells being in G1-, S- and G2M phase. The mitotic index (MI) and labelling index (LI) were independently determined (as described in Example 2A). Results are shown below in table II and in FIG. 1.
Table II. Aphidicolin block/release of Arabidopsis cell suspension MM2d. Data are shown from analysis of samples obtained in the experiment described in Example 2B.

[2] = system: Arabidopsis cell suspension culture MM1; test: Scaled-up aphidicolin (4.16 μg/ml, 24 hrs) synchronisation of MM1: LI and MI; format: cell-based, Arabidopsis thaliana
Description: was analysed following the expression level of known cell cycle regulated genes. Synchronisation was performed as described in Example 2A, with the exception that two 7-day old cultures of the weekly sub-cultured cell suspension (210 ml each) were combined. 40 ml of combined culture was transferred into 200 ml of fresh MSS-medium in each of 10 separate flasks. After incubation for 24 hrs under conditions as described in Example 1, in the presence of 4.16 μg/ml aphidicolin, cells from 5 pooled flasks were washed through a nylon net (mesh size 47 μm) and washed with 2 litre MSS medium and shaken vigorously to remove the aphidicolin. Cells were transferred into a 50 ml plastic tube, washed again with MSS medium and centrifuged at 2500 rpm for 1 min (1075 rcf). Cells were resuspended and combined with the cells from the other 5 flasks similarly washed in a total volume of 300 ml fresh MSS-medium. 30 ml of this cell suspension was then added to 200 ml fresh MSS-medium in each of 10 separate flasks.
For every time point a 30 ml sample was split into:
2) 5 ml for LI and Ml determination as described in Example 2A.
A MI peak of 9.8% was observed, about 12 hrs after release from the aphidicolin block. Labelling index was also determined and reached a peak of 52%, 3 h after release.

## C[C@@]1(CO)[C@H](O)CC[C@@]2(C)[C@H]1CC[C@H]1C[C@@H]3C[C@@]12CC[C@]3(O)CO [aphidicolin]
[1]; 1 h after aphidicolin removal
  Labelling Index (%): 19.41%
  Mitotic index (%): 0%
[1]; 2 h after aphidicolin removal
  Labelling Index (%): 35.47%
  Mitotic index (%): 0.2%
[1]; 3 h after aphidicolin removal
  Labelling Index (%): 69.46%
  Mitotic index (%): 0.4%
[1]; 4 h after aphidicolin removal
  Labelling Index (%): 66%
  Mitotic index (%): 0.6%
[1]; 5 h after aphidicolin removal
  Labelling Index (%): 39.22%
  Mitotic index (%): 1.21%
[1]; 6 h after aphidicolin removal
  Labelling Index (%): 16.05%
  Mitotic index (%): 0.92%
[1]; 7 h after aphidicolin removal
  Labelling Index (%): 13.27%
  Mitotic index (%): 0.71%
[1]; 8 h after aphidicolin removal
  Labelling Index (%): 9.6%
  Mitotic index (%): 1.87%
[1]; 9 h after aphidicolin removal
  Labelling Index (%): 8.23%
  Mitotic index (%): 2.41%
[1]; 10 h after aphidicolin removal
  Labelling Index (%): 9.23%
  Mitotic index (%): 6.09%
[1]; 11 h after aphidicolin removal
  Labelling Index (%): 4.6%
  Mitotic index (%): 6.7%
[1]; 12 h after aphidicolin removal
  Labelling Index (%): 1.46%
  Mitotic index (%): 10.72%
[1]; 13 h after aphidicolin removal
  Labelling Index (%): 2.78%
  Mitotic index (%): 11.06%
[1]; 14 h after aphidicolin removal
  Labelling Index (%): 3.61%
  Mitotic index (%): 10.99%
[1]; 15 h after aphidicolin removal
  Labelling Index (%): 2.73%
  Mitotic index (%): 6.74%
[1]; 16 h after aphidicolin removal
  Labelling Index (%): 2.28%
  Mitotic index (%): 5.79%
[1]; 17 h after aphidicolin removal
  Labelling Index (%): 1.96%
  Mitotic index (%): 4.49%
[1]; 18 h after aphidicolin removal
  Labelling Index (%): 3.3%
  Mitotic index (%): 4.01%
[1]; 19 h after aphidicolin removal
  Labelling Index (%): 7.62%
  Mitotic index (%): 2.38%
[2]; 3 h after release
  Labelling index peak: 52%
[2]; about 12 hrs after release from the aphidicolin block
  MI peak: 9.8%
